We go through 26 compounds from patent US20250032454A1, “KDM1A INHIBITORS FOR THE TREATMENT OF DISEASE” (Imago Biosciences, Inc., priority 2021, published 2025).

In one assay the target is LSD1 (Homo sapiens, UniProt O60341). Briefly: LSD1 fluorescence coupling enzyme assay (HRP/Amplex Red, H3(1-21)K4me2 peptide), 10-dose IC50. As to conditions: 10 μM histone H3(1-21)K4me2 peptide substrate, 3-fold serial dilution from 100 μM. In kind it is biochemical. Summed up:
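Fluorescence coupled assay: LSD1 demethylation of 10 μM H3(1-21)K4me2 peptide produces FAD-dependent H2O2, detected via HRP/Amplex Red as resorufin (Ex/Em 535/590 nm). IC50 from 10 doses, 3-fold serial dilution from 100 μM, in duplicate.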

A further assay concerns MV4;11 cells. Briefly: Cell Titer-Glo cell growth inhibition in MV4;11 cell line (Day 5 / Day 10). The format is cell-based. Conditions: Homo sapiens. A digest of the protocol: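 Cells seeded at 3750/well and treated with a 10-point, 4-fold dose curve from 0 to 50 µM; ATP-based luminescence viability read at Day 5. A portion is reseeded into fresh compound and media for 5 more days, read at Day 10; IC50 derived from luminescence.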
In general terms: In ATP-based viability assays light output follows the ATP content of the culture.

Where [1] appears, read: MV4-11, 120 h, Day 5, read-out: Cell Titer-Glo IC50 (5 d).
Setting [2] is: MV4-11, 240 h, Day 10, read-out: Cell Titer-Glo IC50 (10 d).

Like-named read-outs stand apart in the source and are kept apart here.

For the compound `Cn1cc2ccc(-n3nc(NC[C@H]4CCC[C@H](N)C4)cc3-c3ccc(C#N)c(F)c3)cc2n1` [Example 67, 4-(3-((((1S,3S)-3-aminocyclohexyl)methyl)amino)-1-(2-methyl-2H-indazol-6-yl)-1H-pyrazol-5-yl)-2-fluorobenzonitrile], the values for the IC50 against LSD1, in the assay with MV4;11 cells (setting [1]) and with MV4;11 cells (setting [2]) were 500 to 1000 nM, less than 500 nM and less than 500 nM, respectively.

As for `COc1ccc(-n2nc(NCC3CC3N)cc2-c2ccc(C#N)c(F)c2)cc1` (single isomer, unassigned) [Example 29a, 4-(3-(((2-aminocyclopropyl)methyl)amino)-1-(4-methoxyphenyl)-1H-pyrazol-5-yl)-2-fluorobenzonitrile], the IC50 (as a rule, the concentration that gives 50% inhibition) at LSD1 is 500 to 1000 nM; in the assay with MV4;11 cells (setting [1]), 1000 to 10000 nM; with MV4;11 cells (setting [2]), less than 500 nM.

`Cn1ncc2cc(-n3nc(NCC4CCCC(N)C4)cc3-c3ccc(C#N)c(F)c3)ccc21` (racemic) [Example 7, rac-4-(3-(((3-aminocyclohexyl)methyl)amino)-1-(1-methyl-1H-indazol-5-yl)-1H-pyrazol-5-yl)-2-fluorobenzonitrile]: the IC50 against LSD1 and with MV4;11 cells (setting [1]) was less than 500 nM each time.

With `Cn1cc2cc(-n3nc(NC[C@H]4CCC[C@H](N)C4)cc3-c3ccc(C#N)c(F)c3)ccc2n1` [Example 13SS, 4-(3-((((1S,3S)-3-aminocyclohexyl)methyl)amino)-1-(2-methyl-2H-indazol-5-yl)-1H-pyrazol-5-yl)-2-fluorobenzonitrile], the IC50 against LSD1 and in the assay on MV4;11 cells (setting [2]) was less than 500 nM throughout.

Take `Cn1cc2cc(-n3nc(NCC4CCNCC4)cc3-c3ccc(C#N)c(F)c3)ccc2n1` [Example 10, 2-Fluoro-4-(1-(2-methyl-2H-indazol-5-yl)-3-((piperidin-4-ylmethyl)amino)-1H-pyrazol-5-yl)benzonitrile]: the IC50 at LSD1 and in the assay on MV4;11 cells (setting [1]) was less than 500 nM in each case.

With `N#Cc1ccc(-c2cc(NC[C@@H]3CCCNCC3)nn2-c2ccc(N3CCS(=O)(=O)CC3)cc2)cc1F` (single isomer, unassigned) [Example 26a], the IC50 on LSD1, in the assay with MV4;11 cells (setting [1]) and in the assay on MV4;11 cells (setting [2]) was less than 500 nM throughout.

`N#Cc1ccc(-c2cc(NC[C@H]3CCC[C@H](N)C3)nn2-c2ccc(N3CCCC3)cc2)cc1F` [Example 19, 4-(3-((((1S,3S)-3-aminocyclohexyl)methyl)amino)-1-(4-(pyrrolidin-1-yl)phenyl)-1H-pyrazol-5-yl)-2-fluorobenzonitrile]: the IC50 at LSD1, in the assay on MV4;11 cells (setting [1]) and with MV4;11 cells (setting [2]) was less than 500 nM each time.

For the compound `N#Cc1ccc(-c2cc(NCC3CCCNCC3)nn2-c2ccc(C(=O)N3CCCC3)cc2)cc1F` (centres unmarked) [Example 25, 4-(3-((azepan-4-ylmethyl)amino)-1-(4-(pyrrolidine-1-carbonyl)phenyl)-1H-pyrazol-5-yl)-2-fluorobenzonitrile], the IC50 against LSD1 is 1000 to 10000 nM; with MV4;11 cells (setting [1]), 500 to 1000 nM; with MV4;11 cells (setting [2]), less than 500 nM.

Consider `COc1ccc(-n2nc(NC[C@@H]3CCC[C@H](N)C3)cc2-c2ccc(C#N)c(F)c2)cc1` (single isomer, unassigned) [Example 5b], for which the IC50 against LSD1 and in the assay on MV4;11 cells (setting [1]) was less than 500 nM in each case.

Consider `N#Cc1ccc(-c2cc(NC[C@H]3CCC[C@H](N)C3)nn2-c2cccc(-c3cn[nH]c3)c2)cc1F` [Example 53, 4-(1-(3-(1H-pyrazol-4-yl)phenyl)-3-((((1S,3S)-3-aminocyclohexyl)methyl)amino)-1H-pyrazol-5-yl)-2-fluorobenzonitrile], for which the values for the IC50 at LSD1, in the assay on MV4;11 cells (setting [1]) and in the assay with MV4;11 cells (setting [2]) were less than 500 nM, 500 to 1000 nM and less than 500 nM, respectively.

As to `Cc1ccc(-n2nc(NC[C@H]3CCC[C@H](N)C3)cc2-c2ccc(C#N)c(F)c2)cc1` [Example 12SS, 4-(3-((((1S,3S)-3-aminocyclohexyl)methyl)amino)-1-(p-tolyl)-1H-pyrazol-5-yl)-2-fluorobenzonitrile], the IC50 at LSD1, with MV4;11 cells (setting [1]) and with MV4;11 cells (setting [2]) was less than 500 nM in each case.

Take `COc1ccc(-n2nc(NCC3CCCNC3)cc2-c2ccc(C#N)c(F)c2)cc1` (centres unmarked) [Example 3, 2-fluoro-4-(1-(4-methoxyphenyl)-3-((piperidin-3-ylmethyl)amino)-1H-pyrazol-5-yl)benzonitrile]: the IC50 on LSD1 and in the assay on MV4;11 cells (setting [1]) was less than 500 nM throughout.

Take `COc1ccc(-n2nc(NC[C@H]3CC[C@@H](N)C3)cc2-c2ccc(C#N)c(F)c2)cc1` (single isomer, unassigned) [Example 4a]: the IC50 on LSD1 and in the assay on MV4;11 cells (setting [1]) was less than 500 nM in each case.

Take `CS(=O)(=O)n1cc(-c2ccc(-n3nc(NC[C@H]4CCC[C@H](N)C4)cc3-c3ccc(C#N)c(F)c3)cc2)cn1` [Example 59, 4-(3-((((1S,3S)-3-aminocyclohexyl)methyl)amino)-1-(4-(1-(methylsulfonyl)-1H-pyrazol-4-yl)phenyl)-1H-pyrazol-5-yl)-2-fluorobenzonitrile]: the IC50 on LSD1 is less than 500 nM; with MV4;11 cells (setting [1]), 1000 to 10000 nM; with MV4;11 cells (setting [2]), less than 500 nM.

`N#Cc1ccc(-c2cc(NC[C@@H]3CCC[C@@H](N)C3)nn2-c2ccc(C(=O)N3CCCC3)cc2)cc1F` [Example 64, 4-(3-((((1R,3R)-3-aminocyclohexyl)methyl)amino)-1-(4-(pyrrolidine-1-carbonyl)phenyl)-1H-pyrazol-5-yl)-2-fluorobenzonitrile]: the IC50 against LSD1 is 1000 to 10000 nM; with MV4;11 cells (setting [1]), 1000 to 10000 nM; in the assay with MV4;11 cells (setting [2]), less than 500 nM.

In the case of `Cn1cc2cc(-n3nc(NC[C@H]4CCNC4)cc3-c3ccc(C#N)c(F)c3)ccc2n1` [Example 21S, (S)-2-fluoro-4-(1-(2-methyl-2H-indazol-5-yl)-3-((pyrrolidin-3-ylmethyl)amino)-1H-pyrazol-5-yl)benzonitrile], the IC50 against LSD1 and in the assay on MV4;11 cells (setting [1]) was less than 500 nM throughout.

Regarding `Cc1ccc(-n2nc(NC[C@@H]3CCC[C@@H](N)C3)cc2-c2ccc(C#N)c(F)c2)cc1` [Example 12RR, 4-(3-((((1R,3R)-3-aminocyclohexyl)methyl)amino)-1-(p-tolyl)-1H-pyrazol-5-yl)-2-fluorobenzonitrile], the IC50 at LSD1 is 500 to 1000 nM; in the assay with MV4;11 cells (setting [1]), 1000 to 10000 nM; with MV4;11 cells (setting [2]) it was less than 500 nM.

For the compound `N#Cc1ccc(-c2cc(NC[C@H]3CCC[C@H](N)C3)nn2-c2ccncc2)cc1F` [Example 17, 4-(3-((((1S,3S)-3-aminocyclohexyl)methyl)amino)-1-(pyridin-4-yl)-1H-pyrazol-5-yl)-2-fluorobenzonitrile], the IC50 on LSD1 is greater than 10000 nM; in the assay with MV4;11 cells (setting [1]), 1000 to 10000 nM; in the assay with MV4;11 cells (setting [2]), 1000 to 10000 nM.

For the compound `CC(C)n1cc2cc(-n3nc(NC[C@@H]4CCC[C@@H](N)C4)cc3-c3ccc(C#N)c(F)c3)ccc2n1` [Example 72, 4-(3-((((1R,3R)-3-aminocyclohexyl)methyl)amino)-1-(2-isopropyl-2H-indazol-5-yl)-1H-pyrazol-5-yl)-2-fluorobenzonitrile], the IC50 against LSD1 is 1000 to 10000 nM; with MV4;11 cells (setting [1]), 500 to 1000 nM; with MV4;11 cells (setting [2]), less than 500 nM.

As to `COC1CCN(c2ccc(-n3nc(NC[C@H]4CCC[C@H](N)C4)cc3-c3ccc(C#N)c(F)c3)cc2)CC1` [Example 43, 4-(3-((((1S,3S)-3-aminocyclohexyl)methyl)amino)-1-(4-(4-methoxypiperidin-1-yl)phenyl)-1H-pyrazol-5-yl)-2-fluorobenzonitrile], the IC50 against LSD1 and in the assay on MV4;11 cells (setting [2]) was less than 500 nM in each case.

For the compound `N#Cc1ccc(-c2cc(NC[C@H]3CCC[C@H](N)C3)nn2-c2cccc(-c3cnn(CCO)c3)c2)cc1F` [Example 57, 4-(3-((((1S,3S)-3-aminocyclohexyl)methyl)amino)-1-(3-(1-(2-hydroxyethyl)-1H-pyrazol-4-yl)phenyl)-1H-pyrazol-5-yl)-2-fluorobenzonitrile], the IC50 was less than 500 nM against LSD1, 1000 to 10000 nM in the assay on MV4;11 cells (setting [1]) and less than 500 nM with MV4;11 cells (setting [2]).

As for `CN[C@H]1CCCC(CNc2cc(-c3ccc(C#N)c(F)c3)n(-c3ccc(OC)cc3)n2)C1` (single isomer, unassigned) [Example 32a], the IC50 at LSD1 is less than 500 nM; with MV4;11 cells (setting [1]), 1000 to 10000 nM.

Take `COc1ccc(-n2nc(NC[C@H]3CCC[C@H](N)C3)cc2-c2ccc(C(F)(F)F)c(F)c2)cc1` [Example 18, N-(((1S,3S)-3-aminocyclohexyl)methyl)-5-(3-fluoro-4-(trifluoromethyl)phenyl)-1-(4-methoxyphenyl)-1H-pyrazol-3-amine]: the figures for the IC50 at LSD1, with MV4;11 cells (setting [1]) and with MV4;11 cells (setting [2]) were 1000 to 10000 nM, 500 to 1000 nM and 500 to 1000 nM, respectively.

Turning to `Cn1ccc2cc(-n3nc(NCC4CCC[C@H](N)C4)cc3-c3ccc(C#N)c(F)c3)ccc21` (stereo partly drawn) [Example 66, 4-(3-((((1,3S)-3-aminocyclohexyl)methyl)amino)-1-(1-methyl-1H-indol-5-yl)-1H-pyrazol-5-yl)-2-fluorobenzonitrile], the IC50 against LSD1, with MV4;11 cells (setting [1]) and in the assay with MV4;11 cells (setting [2]) was less than 500 nM throughout.

On to `N#Cc1ccc(-c2cc(NC[C@H]3CCCNCC3)nn2-c2ccc(N3CCCC3)cc2)cc1F` (single isomer, unassigned) [Example 24b], for which the IC50 on LSD1, in the assay on MV4;11 cells (setting [1]) and in the assay with MV4;11 cells (setting [2]) was less than 500 nM throughout.

For the compound `COc1ccc(-n2nc(N3CCCC4CCCCC43)cc2-c2ccc(C#N)c(F)c2)cc1` (centres unmarked) [Example 82, 2-fluoro-4-(1-(4-methoxyphenyl)-3-(octahydroquinolin-1(2H)-yl)-1H-pyrazol-5-yl)benzonitrile], the IC50 against LSD1 was 1000 to 10000 nM; in the assay with MV4;11 cells (setting [2]), greater than 10000 nM.
